Reference: ChEMBL document CHEMBL1126135, “N-(1-oxododecyl)-4 alpha,10-dimethyl-8-aza-trans-decal-3 beta-ol: a potent competitive inhibitor of 2,3-oxidosqualene cyclase” (J Med Chem, 1992)

How the values were obtained:
HepG2 = assay: Compound was tested for inhibition of cholesterol biosynthesis in HepG2 cells from [14C]- acetate; type: functional, cell-based; settings: Homo sapiens
Lanosterol synthase = target: T1, Lanosterol synthase (Rattus norvegicus, UniProt P48450); assay: Inhibitory activity against Oxidosqualene-lanosterol cyclase enzyme obtained from rat liver; d = in a microsomal assay fails to inhibit OSC (Oxidosqualene cyclase); type: microsomes, Microsome
T1 sequence (P48450 whole entry): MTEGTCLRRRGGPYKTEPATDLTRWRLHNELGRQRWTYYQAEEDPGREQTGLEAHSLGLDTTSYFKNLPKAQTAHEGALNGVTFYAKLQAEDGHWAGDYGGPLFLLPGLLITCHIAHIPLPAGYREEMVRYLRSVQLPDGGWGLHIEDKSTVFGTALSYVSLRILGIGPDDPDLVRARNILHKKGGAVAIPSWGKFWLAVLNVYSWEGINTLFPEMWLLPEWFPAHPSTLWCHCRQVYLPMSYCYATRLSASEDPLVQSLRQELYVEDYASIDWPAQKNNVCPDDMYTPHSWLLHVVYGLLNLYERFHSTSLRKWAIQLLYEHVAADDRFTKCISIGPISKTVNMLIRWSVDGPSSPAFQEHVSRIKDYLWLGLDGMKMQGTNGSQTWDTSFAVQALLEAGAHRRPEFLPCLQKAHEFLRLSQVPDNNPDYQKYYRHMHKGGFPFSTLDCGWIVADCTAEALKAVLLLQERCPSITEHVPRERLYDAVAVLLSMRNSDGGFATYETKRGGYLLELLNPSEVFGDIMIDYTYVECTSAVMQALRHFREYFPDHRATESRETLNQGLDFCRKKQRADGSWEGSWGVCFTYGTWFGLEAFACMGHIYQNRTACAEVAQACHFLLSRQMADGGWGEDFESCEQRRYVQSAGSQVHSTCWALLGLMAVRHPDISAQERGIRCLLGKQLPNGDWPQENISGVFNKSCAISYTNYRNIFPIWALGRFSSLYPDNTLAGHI

SMILES | IC50 (HepG2) | IC50 (Lanosterol synthase)
CC(=O)N1CC[C@H]2[C@H](C)[C@@H](O)CC[C@]2(C)C1 | > 100 µM | –
C[C@@H]1[C@@H](O)CC[C@]2(C)CNCC[C@@H]12 | 19 µM | No inhibition
CC1(C)[C@@H](O)CC[C@]2(C)CCCC[C@@H]12 | 28 µM | –
CC(C)CCCC(C)CCCC(C)N1CC[C@H]2[C@H](C)[C@@H](O)CC[C@]2(C)C1 (stereo not given in full) | 0.07 µM | –

Continued, in another order:

IC50 (HepG2) | SMILES | IC50 (Lanosterol synthase)
52 µM | CCCCCCCCCCCCS(=O)(=O)N1CC[C@H]2[C@H](C)[C@@H](O)CC[C@]2(C)C1 | –
0.01 µM | CCCCCCCCCCCCN1CC[C@H]2[C@H](C)[C@@H](O)CC[C@]2(C)C1 | –
2.8 µM | CCCCCCCCCCCC[S+]([O-])N1CC[C@H]2[C@H](C)[C@@H](O)CC[C@]2(C)C1 (stereo not given in full) | –
2 µM | CCCCCCCCCCCC(=S)N1CC[C@H]2[C@H](C)[C@@H](O)CC[C@]2(C)C1 | –
0.7 µM | CCCCCCCCCCCC(=O)N1CC[C@H]2[C@H](C)[C@@H](O)CC[C@]2(C)C1 | –
